Test results: ChEMBL document CHEMBL1201862, “PubChem BioAssay data set” (2004)
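Grown in 96-well plates, cells were treated for 48 hours with each compound at five concentrations. Insufficient inhibition: endpoint recorded as highest concentration tested. GI50 = concentration required for 50% inhibition of growth.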 Calls of active or inactive are those of the source. No stated cut-off is given here; in the data, active = GI50 up to about 1.1 µM and inactive = higher.

Columns and labels:
Test in all cases: NCI-60 cell line screen, 48 h
SN12C = tested on: SN12C
TK-10 = tested on: TK-10
COLO 205 = tested on: COLO 205
SW-620 = tested on: SW-620
OVCAR-3 = tested on: OVCAR-3
SF-539 = tested on: SF-539
DU-145 = tested on: DU-145
NCI-H522 = tested on: NCI-H522
SNB-19 = tested on: SNB-19
U-251 = tested on: U-251
A498 = tested on: A498
Hs-578T = tested on: Hs-578T
RXF 393 = tested on: RXF 393
SK-MEL-28 = tested on: SK-MEL-28
SNB-75 = tested on: SNB-75
HCT-116 = tested on: HCT-116
HOP-62 = tested on: HOP-62
SR = tested on: SR
UACC-62 = tested on: UACC-62
786-0 = tested on: 786-0

SMILES	GI50 (SN12C)	GI50 (TK-10)	GI50 (COLO 205)	GI50 (SW-620)	GI50 (OVCAR-3)	GI50 (SF-539)	GI50 (DU-145)	GI50 (NCI-H522)	GI50 (SNB-19)	GI50 (U-251)	GI50 (A498)	GI50 (Hs-578T)	GI50 (RXF 393)	GI50 (SK-MEL-28)	GI50 (SNB-75)	GI50 (HCT-116)	GI50 (HOP-62)	GI50 (SR)	GI50 (UACC-62)	GI50 (786-0)
N/C(=N\N/C=C1\C=Nc2cc(C(F)(F)F)ccc2C1=O)NO	> 10 µM (inactive)	> 10 µM (inactive)	> 10 µM (inactive)	> 10 µM (inactive)	> 10 µM (inactive)	> 10 µM (inactive)	> 10 µM (inactive)	> 10 µM (inactive)	> 10 µM (inactive)	> 10 µM (inactive)	> 10 µM (inactive)	> 10 µM (inactive)	> 10 µM (inactive)	> 10 µM (inactive)	0.148 µM (active)	> 10 µM (inactive)	> 10 µM (inactive)	> 10 µM (inactive)	> 10 µM (inactive)	> 10 µM (inactive)
CN(C)Cc1cc(C(F)(F)F)ccc1C(O)(c1ccccc1)c1ccccc1	15.4 µM (inactive)	17.2 µM (inactive)	8.05 µM (inactive)	17.3 µM (inactive)	27.8 µM (inactive)	17 µM (inactive)	26.7 µM (inactive)	15.6 µM (inactive)	16.7 µM (inactive)	11.8 µM (inactive)	11.7 µM (inactive)	26.9 µM (inactive)	11.8 µM (inactive)	14.9 µM (inactive)	8.55 µM (inactive)	13 µM (inactive)	16.3 µM (inactive)	12.6 µM (inactive)	13.2 µM (inactive)	14.2 µM (inactive)
CNC(=O)C(C)NC(=O)C(Cc1ccccc1)NC(=O)c1ccccc1 (stereo not given)	> 100 µM (inactive)	> 100 µM (inactive)	> 100 µM (inactive)	> 100 µM (inactive)	> 100 µM (inactive)	> 100 µM (inactive)	> 100 µM (inactive)	> 100 µM (inactive)	> 100 µM (inactive)	> 100 µM (inactive)	> 100 µM (inactive)	> 100 µM (inactive)	> 100 µM (inactive)	> 100 µM (inactive)	> 100 µM (inactive)	> 100 µM (inactive)	> 100 µM (inactive)	> 100 µM (inactive)	> 100 µM (inactive)	> 100 µM (inactive)
O=C1CCc2c(sc3ncnc(Nc4cccc(Br)c4)c23)C1	3.4 µM (inactive)	4.06 µM (inactive)	7.36 µM (inactive)	3.62 µM (inactive)	2.51 µM (inactive)	3.63 µM (inactive)	3.42 µM (inactive)	2.1 µM (inactive)	4.12 µM (inactive)	2.81 µM (inactive)	14 µM (inactive)	4.15 µM (inactive)	2.73 µM (inactive)	24.2 µM (inactive)	3.7 µM (inactive)	3.56 µM (inactive)	5.53 µM (inactive)	2.33 µM (inactive)	3.72 µM (inactive)	4.43 µM (inactive)
Cn1ncc2c(Cl)ncnc21	> 100 µM (inactive)	> 100 µM (inactive)	> 100 µM (inactive)	> 100 µM (inactive)	> 100 µM (inactive)	> 100 µM (inactive)	> 100 µM (inactive)	> 100 µM (inactive)	> 100 µM (inactive)	> 100 µM (inactive)	> 100 µM (inactive)	> 100 µM (inactive)	> 100 µM (inactive)	> 100 µM (inactive)	> 100 µM (inactive)	> 100 µM (inactive)	> 100 µM (inactive)	> 100 µM (inactive)	> 100 µM (inactive)	> 100 µM (inactive)
CN1CN(c2ccccc2)C2(CCN(CCCSc3ccccc3NC(=O)/C=C/c3ccccc3)CC2)C1=O	3.39 µM (inactive)	8.39 µM (inactive)	2.01 µM (inactive)	6.25 µM (inactive)	3.18 µM (inactive)	2.88 µM (inactive)	3.82 µM (inactive)	17.3 µM (inactive)	5.27 µM (inactive)	7.5 µM (inactive)	2.75 µM (inactive)	3.41 µM (inactive)	7.55 µM (inactive)	2.11 µM (inactive)	5.52 µM (inactive)	2.5 µM (inactive)	2.83 µM (inactive)	2.1 µM (inactive)	2.71 µM (inactive)	7.03 µM (inactive)
COc1ccc2oc(C(=O)N3CC(CCl)c4ccc(N)cc43)cc2c1 (stereo not given)	0.869 µM (active)	2.9 µM (inactive)	0.284 µM (active)	0.348 µM (active)	0.918 µM (active)	0.481 µM (active)	0.247 µM (active)	0.0189 µM (active)	1.14 µM (inactive)	0.333 µM (active)	0.296 µM (active)	0.857 µM (active)	0.249 µM (active)	0.42 µM (active)	0.308 µM (active)	0.161 µM (active)	0.995 µM (active)	0.16 µM (active)	0.192 µM (active)	0.133 µM (active)
CC(CO)C1=CC(C#CCOCc2ccccc2)N(C(=O)Oc2ccccc2)c2ccccc21 (stereo not given)	15.9 µM (inactive)	48.1 µM (inactive)	15.1 µM (inactive)	45.5 µM (inactive)	9.35 µM (inactive)	41 µM (inactive)	57.5 µM (inactive)	7.73 µM (inactive)	32.5 µM (inactive)	34.5 µM (inactive)	4.59 µM (inactive)	14.3 µM (inactive)	3.33 µM (inactive)	54.5 µM (inactive)	22.9 µM (inactive)	14.8 µM (inactive)	29.3 µM (inactive)	9.53 µM (inactive)	2.81 µM (inactive)	28 µM (inactive)
C=CCN1C(=O)/C(=C/c2ccccc2)NC1=S	> 100 µM (inactive)	> 100 µM (inactive)	> 100 µM (inactive)	> 100 µM (inactive)	> 100 µM (inactive)	> 100 µM (inactive)	> 100 µM (inactive)	94.6 µM (inactive)	> 100 µM (inactive)	> 100 µM (inactive)	38.3 µM (inactive)	> 100 µM (inactive)	> 100 µM (inactive)	> 100 µM (inactive)	> 100 µM (inactive)	> 100 µM (inactive)	> 100 µM (inactive)	> 100 µM (inactive)	> 100 µM (inactive)	> 100 µM (inactive)
C=CCN1C(=O)CNC1=S	> 100 µM (inactive)	> 100 µM (inactive)	> 100 µM (inactive)	> 100 µM (inactive)	> 100 µM (inactive)	> 100 µM (inactive)	> 100 µM (inactive)	> 100 µM (inactive)	> 100 µM (inactive)	> 100 µM (inactive)	> 100 µM (inactive)	> 100 µM (inactive)	> 100 µM (inactive)	> 100 µM (inactive)	> 100 µM (inactive)	> 100 µM (inactive)	> 100 µM (inactive)	> 100 µM (inactive)	> 100 µM (inactive)	> 100 µM (inactive)
COc1ccc(SCc2cc(OC)c(OC)c(OC)c2)cc1OC	> 100 µM (inactive)	> 91.4 µM (inactive)	50.4 µM (inactive)	82.6 µM (inactive)	> 56 µM (inactive)	> 80.2 µM (inactive)	> 100 µM (inactive)	53.6 µM (inactive)	> 81.1 µM (inactive)	53.8 µM (inactive)	40.9 µM (inactive)	54 µM (inactive)	> 95.5 µM (inactive)	> 73.8 µM (inactive)	17.7 µM (inactive)	61.7 µM (inactive)	> 100 µM (inactive)	53.8 µM (inactive)	38 µM (inactive)	> 100 µM (inactive)
COC1=CC(=O)C[C@@H](C)[C@]12Oc1c(Cl)c(OC)cc(OC)c1C2=O [GRISEOFULVIN]	40.5 µM (inactive)	> 85.1 µM (inactive)	9.89 µM (inactive)	7.62 µM (inactive)	37.3 µM (inactive)	14.6 µM (inactive)	39.7 µM (inactive)	8.11 µM (inactive)	35.2 µM (inactive)	27.7 µM (inactive)	> 47.2 µM (inactive)	11.9 µM (inactive)	10.5 µM (inactive)	99.3 µM (inactive)	4.5 µM (inactive)	11.8 µM (inactive)	49.9 µM (inactive)	7.48 µM (inactive)	18.6 µM (inactive)	50.1 µM (inactive)
COc1ccc(-c2[nH]c(=O)n(C3OC(CO)C(O)C(O)C3O)c(=O)c2C#N)cc1 (stereo not given)	> 100 µM (inactive)	> 100 µM (inactive)	> 100 µM (inactive)	> 100 µM (inactive)	> 100 µM (inactive)	> 100 µM (inactive)	> 100 µM (inactive)	> 100 µM (inactive)	> 100 µM (inactive)	> 100 µM (inactive)	> 100 µM (inactive)	> 100 µM (inactive)	> 100 µM (inactive)	> 100 µM (inactive)	> 100 µM (inactive)	> 100 µM (inactive)	> 100 µM (inactive)	> 100 µM (inactive)	> 100 µM (inactive)	> 100 µM (inactive)
CCN(CC)CC1CCCCN1CC(=O)N1c2ccccc2NC(=O)c2ccccc21 (stereo not given)	> 100 µM (inactive)	> 100 µM (inactive)	> 100 µM (inactive)	> 100 µM (inactive)	> 100 µM (inactive)	> 100 µM (inactive)	> 100 µM (inactive)	> 100 µM (inactive)	> 100 µM (inactive)	> 100 µM (inactive)	> 100 µM (inactive)	> 100 µM (inactive)	> 100 µM (inactive)	> 100 µM (inactive)	13.9 µM (inactive)	> 100 µM (inactive)	> 100 µM (inactive)	> 100 µM (inactive)	> 100 µM (inactive)	> 100 µM (inactive)
